pIC50: −log10 of the molar value.
Columns and labels:
[1] = test system: oligo-1: d(CGCGAATTCGCG)2; experiment: UV thermal denaturation; assay type: binding
[2] = test system: oligo-1: d(CGCGAATTCGCG)2; experiment: Fluorescence titration; assay type: binding; conditions: 20 °C, pH 7.2
[3] = test system: A549/ATCC; experiment: NCI-60 SRB growth assay; assay type: cell-based, human
[4] = test system: EKVX; experiment: NCI-60 SRB growth assay; assay type: cell-based, human
[5] = test system: HOP-62; experiment: NCI-60 SRB growth assay; assay type: cell-based, human; conditions: HOP-62
[6] = test system: NCI-H522; experiment: NCI-60 SRB growth assay; assay type: cell-based, human
[7] = test system: COLO 205; experiment: NCI-60 SRB growth assay; assay type: cell-based, human; conditions: COLO 205
[8] = test system: HCT-116; experiment: NCI-60 SRB growth assay; assay type: cell-based, human; conditions: HCT-116
[9] = test system: KM12; experiment: NCI-60 SRB growth assay; assay type: cell-based, human
[10] = test system: SF-539; experiment: NCI-60 SRB growth assay; assay type: cell-based, human
[11] = test system: SNB-75; experiment: NCI-60 SRB growth assay; assay type: cell-based, human
[12] = test system: SK-MEL-2; experiment: NCI-60 SRB growth assay; assay type: cell-based, human
[13] = test system: UACC-257; experiment: NCI-60 SRB growth assay; assay type: cell-based, human
[14] = test system: UACC-62; experiment: NCI-60 SRB growth assay; assay type: cell-based, human
[15] = test system: OVCAR-5; experiment: NCI-60 SRB growth assay; assay type: cell-based, human
[16] = test system: OVCAR-8; experiment: NCI-60 SRB growth assay; assay type: cell-based, human; conditions: OVCAR-8
[17] = test system: A498; experiment: NCI-60 SRB growth assay; assay type: cell-based, human
[18] = test system: CAKI-1; experiment: NCI-60 SRB growth assay; assay type: cell-based, human
[19] = test system: PC-3; experiment: NCI-60 SRB growth assay; assay type: cell-based, human
[20] = test system: DU-145; experiment: NCI-60 SRB growth assay; assay type: cell-based, human
[21] = test system: MCF7; experiment: NCI-60 SRB growth assay; assay type: cell-based, human
[22] = test system: HS 578T; experiment: NCI-60 SRB growth assay; assay type: cell-based, human
[23] = test system: BT-549; experiment: NCI-60 SRB growth assay; assay type: cell-based, human; conditions: BT-549
[24] = test system: MDA-MB-468; experiment: NCI-60 SRB growth assay; assay type: cell-based, human; conditions: MDA-MB-468
[25] = biological target: T1, Hu Topo I (Homo sapiens, UniProt P11387); experiment: Plasmid DNA relaxation assay
T1 sequence (P11387 1-765): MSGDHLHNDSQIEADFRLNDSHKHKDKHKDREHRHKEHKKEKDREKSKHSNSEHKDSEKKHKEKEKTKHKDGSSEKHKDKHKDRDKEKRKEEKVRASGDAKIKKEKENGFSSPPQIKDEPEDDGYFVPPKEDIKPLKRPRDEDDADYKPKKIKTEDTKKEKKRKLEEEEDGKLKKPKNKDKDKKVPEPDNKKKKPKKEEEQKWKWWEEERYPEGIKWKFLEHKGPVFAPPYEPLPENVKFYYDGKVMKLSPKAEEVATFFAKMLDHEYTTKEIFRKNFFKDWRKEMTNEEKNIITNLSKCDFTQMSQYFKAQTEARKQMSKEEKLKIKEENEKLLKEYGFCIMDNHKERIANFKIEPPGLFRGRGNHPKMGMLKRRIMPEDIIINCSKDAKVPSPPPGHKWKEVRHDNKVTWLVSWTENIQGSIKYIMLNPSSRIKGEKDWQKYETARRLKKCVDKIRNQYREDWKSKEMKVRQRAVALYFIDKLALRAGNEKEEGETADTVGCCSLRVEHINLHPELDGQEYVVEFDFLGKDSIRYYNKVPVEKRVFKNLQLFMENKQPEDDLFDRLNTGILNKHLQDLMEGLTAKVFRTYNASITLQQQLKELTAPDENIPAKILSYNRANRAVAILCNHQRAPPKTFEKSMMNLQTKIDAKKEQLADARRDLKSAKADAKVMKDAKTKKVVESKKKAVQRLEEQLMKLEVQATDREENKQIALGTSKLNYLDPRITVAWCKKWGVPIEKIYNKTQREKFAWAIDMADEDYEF

CCCCN1CCN(c2ccc3[nH]c(-c4ccc5[nH]c(-c6ccc(C(F)(F)F)cc6)nc5c4)nc3c2)CC1 [12b, 5-(5-(4-Butylpiperazin-1-yl)-1H-benzo[d]imidazol-2-yl)2(4(trifluoromethyl)phenyl)-1H-benzo[d]imidazole]
ΔTm ([1]; r = 0.5): 3 °C
Tm ([1]; r = 0.5, oligo 2.5 μM): 57.7 °C
Tm ([1]; r = 1): 58.7 °C
ΔTm ([1]; r = 1): 4 °C
Tm ([1]; r = 1.5): 59.7 °C
ΔTm ([1]; r = 1.5): 5 °C
Tm ([1]; r = 2.0): 61.7 °C
ΔTm ([1]; r = 2.0): 7 °C
Ka binding affinity with oligo-1 [2]: 1 × 10^7 M^–1
TGI ([3]; A549/ATCC): 1190 nM
GI50 ([3]; Homo sapiens, A549): 350 nM
TGI [4]: 2900 nM
GI50 ([4]; Homo sapiens): 1500 nM
CC50 ([4]; Homo sapiens, read-out: LC50): 5700 nM
TGI [5]: 3050 nM
GI50 ([5]; Homo sapiens): 1300 nM
GI50 ([6]; Homo sapiens, NCI-H522): 1600 nM
TGI ([6]; NCI–H522): 3600 nM
TGI [7]: 3100 nM
GI50 ([7]; Homo sapiens): 1300 nM
TGI [8]: 420 nM
GI50 ([8]; Homo sapiens): 200 nM
GI50 ([9]; Homo sapiens, KM12): 670 nM
CC50 ([9]; Homo sapiens, KM12, read-out: LC50): 4900 nM
TGI ([9]; KM12): 2040 nM
GI50 ([10]; Homo sapiens, SF-539): 1600 nM
CC50 ([10]; Homo sapiens, SF-539, read-out: LC50): 5800 nM
TGI ([10]; SF-539): 3050 nM
GI50 ([11]; Homo sapiens, SNB-75): 1050 nM
CC50 ([11]; Homo sapiens, SNB-75, read-out: LC50): 4800 nM
TGI ([11]; SNB-75): 2250 nM
GI50 ([12]; Homo sapiens, SK-MEL-2): 1800 nM
CC50 ([12]; Homo sapiens, SK-MEL-2, read-out: LC50): 6300 nM
TGI ([12]; SK-MEL-2): 3300 nM
GI50 ([13]; Homo sapiens, UACC-257): 1700 nM
CC50 ([13]; Homo sapiens, UACC-257, read-out: LC50): 7200 nM
TGI ([13]; UACC-257): 3500 nM
GI50 ([14]; Homo sapiens, UACC-62): 1500 nM
CC50 ([14]; Homo sapiens, UACC-62, read-out: LC50): 5800 nM
TGI ([14]; UACC-62): 2900 nM
GI50 ([15]; Homo sapiens, OVCAR-5): 1800 nM
CC50 ([15]; Homo sapiens, OVCAR-5, read-out: LC50): 5900 nM
TGI ([15]; OVCAR-5): 3500 nM
GI50 ([16]; Homo sapiens): 1100 nM
TGI [16]: 2800 nM
TGI ([17]; A498): 3310 nM
GI50 ([17]; Homo sapiens, A498): 1690 nM
CC50 ([17]; Homo sapiens, A498, read-out: LC50): 6490 nM
TGI ([18]; CAKI-1): 2580 nM
GI50 ([18]; Homo sapiens, CAKI-1): 1290 nM
CC50 ([18]; Homo sapiens, CAKI-1, read-out: LC50): 5150 nM
GI50 ([19]; Homo sapiens, PC-3): 860 nM
CC50 ([19]; Homo sapiens, PC-3, read-out: LC50): 5500 nM
TGI ([19]; PC-3): 2310 nM
TGI ([20]; DU-145): 1680 nM
GI50 ([20]; Homo sapiens, DU-145): 450 nM
CC50 ([20]; Homo sapiens, DU-145, read-out: LC50): 4300 nM
TGI [21]: 570 nM
GI50 ([21]; Homo sapiens): 170 nM
TGI ([22]; HS578T): 3.05 - μM
GI50 ([22]; Homo sapiens, Hs-578T): 1260 nM
TGI [23]: 3150 nM
GI50 ([23]; Homo sapiens): 1620 nM
GI50 ([24]; Homo sapiens): 1660 nM
TGI [24]: 3340 nM
pIC50 [25]: 4.80

— paper PMC8793051 (ACS Omega, 2022)
